The values that follow come from article PMC10330721, “Chemo-enzymatic synthesis and biological activity evaluation of propenylbenzene derivatives” (Frontiers in Microbiology, 2023).

Data set [1] relates to human colon carcinoma Caco-2 cell line. The note with it: ref Lea et al., 2016; Padhy et al., 2022; cited from earlier work.
Data set [2] deals with C. albicans strains. In words: Fungistatic activity assay, broth microdilution, values given over several strains. Format: cell-based, Candida albicans. The note with it: for MIC50: Candida albicans, read-out: MIC50 (over all tested strains). The procedure:
(§1) Fungistatic activity was determined using Candida albicans ATCC 90028 from the American Type Culture Collection (ATCC, Manassas, VA, United States), and clinical isolates, C. albicans 636/20, C. albicans 595/20, and C. albicans 38 obtained from Wrocław Medical University, Wrocław, Poland.
(§2) All compounds were tested for biological activity against C. albicans ATTC 90028, C. albicans 636/20, C. albicans 595/20, and C. albicans 38 using the broth microdilution method. YPD medium (20 g glucose, 20 g Bacto Peptone, 10 g yeast extract, and 1 L of distilled water, pH 6.5) was used for the tests. The compound solutions were prepared in DMSO and diluted in YPD to obtain final concentrations in the range of 10–250 μg/mL. One hundred microlitres of each solution was pipetted into the wells of a 96-well microtiter plate. The inoculum was standardized to 0.5 McFarland standard and then diluted to obtain a final suspension with a cell density of 0.5–2.5 × 10^3 CFU/mL. The inoculum size was 100 μL. The positive control comprised DMSO added in the same concentration as the tested compounds in the inoculum, whereas the negative control consisted of DMSO diluted in the broth without the addition of inoculum. The microtiter plates were incubated in a Biosan PST-60 HL Plate Shaker-Thermostat (Riga, Latvia) at 35°C under shaking at 1,000 rpm for 24 h.
On the technique in general: In broth dilution the organism is exposed to a series of concentrations in liquid medium.

The test system of data set [3] is MG63 cells. In words: Resazurin-based viability assay. Format: cell-based, human. To be noted: 24 h, 1, 50 and 200 μg/mL. As to the method: (§3) HepG2 cells were cultured in Dulbecco’s modified Eagle’s Medium - low glucose (Merck) supplemented with 10% foetal bovine serum (FBS) (Merck). Caco-2 cells were cultured in Dulbecco’s modified Eagle’s medium - high glucose (Merck) supplemented with 10% FBS, 2% HEPES buffer (Thermo Fisher Scientific, Warszawa, Poland), 1% Penicillin–Streptomycin-Amphotericin B Solution (100×, Merck), 1% MEM solution (100×, Thermo Fisher Scientific), and 1% Gentamycin Solution (10 mg/mL, Merck). MG-63 cells were cultured in Minimum Essential Medium (Merck) supplemented with 10% FBS. All cells were cultured in an atmosphere of 5% CO2 at 37°C.
The tested compounds were dissolved in ethanol at 10 mg/mL. The concentrations were then adjusted to 1, 50, and 200 μg/mL in culture medium. Four controls were prepared: no ethanol added, and 0.01, 0.5, and 2% EtOH. The cells were treated with the compounds for 24 h. […] The culture medium was replaced with medium containing 10% resazurin dye. The cells were incubated at 37°C in an atmosphere of 5% CO2 for 2 h. Absorbance levels were measured spectrophotometrically (Epoch) at a wavelengths of 600 nm for resazurin and 690 nm as a reference.
In general terms: Alamar Blue is a resazurin reagent that responds to reducing activity.

The nature of data set [4]: Haemolytic activity assay. The format is cell-based. To be noted: human red blood cells (RBCs) from healthy donors, 37°C, read-out: Percentage of haemolysis. As to the method: This test is based on comparison of the cytotoxicity of all tested compounds in human red blood cells (RBCs) with that in a control group. RBCs for this method were obtained from a blood center from examined and healthy donors. The compounds were tested at 10, 20, 40, 60, 80, and 100 μM concentrations. The control sample contained only ethanol in the same volume as the test samples. […] The samples were incubated at 37°C for 1 h. Then, the absorbance at 540 nm was measured using a UV–Vis spectrophotometer (Specord 40, Analytik Jena, Jena, Germany). The haemolytic activity of the compounds was determined as the ratio of the absorbance of haemoglobin in the test samples to that in completely haemolyzed cells multiplied by 100%.

For data set [5], the system named is HepG2 cells. In words: Resazurin-based viability assay. Format: cell-based, human. The note with it: 24 h, 1, 50 and 200 μg/mL. The procedure: as §3, with “The human HepG2 and Caco-2 cell lines were obtained from the American Type Culture Collection (HB-8065™ and HTB-37™) and the MG-63 cell line was obtained from the European Collection of Authenticated Cell Cultures (Merck, Poznań, Poland). HepG2” for “HepG2”
HepG2, Caco-2, and […] were seeded in 96-well plates at 20,000 cells per well, and MG-63 cells at 10,000 cells per well, as described previously ([Marycz et al., 2012]; [Kornicka et al., 2017]). The tested compounds were dissolved in ethanol at 10 mg/mL. The concentrations were then adjusted to 1, 50, and 200 μg/mL in culture medium. Four controls were prepared: no ethanol added, and 0.01, 0.5, and 2% EtOH. The cells were treated with the compounds for 24 h. Then, cell viability was evaluated using the resazurin-based assay kit (TOX8), as described previously ([Grzesiak et al., 2011]; [Marycz et al., 2018]). The culture medium was replaced with medium containing 10% resazurin dye. The cells were incubated at 37°C in an atmosphere of 5% CO2 for 2 h. Absorbance levels were measured spectrophotometrically (Epoch) at a wavelengths of 600 nm for resazurin and 690 nm as a reference.

Data set [6] relates to C. albicans 595/20. The data set is described as follows: Fungistatic activity assay, broth microdilution. Format: cell-based. To be noted: Candida albicans. The procedure: as §1, §2
Data set [7] concerns C. albicans ATTC18804. Details: method as in Kubo et al., 1993. The note with it: C. albicans ATTC18804 ref Kubo et al., 1993; cited from earlier work.
Data set [8] concerns RBCs membrane. The data set is described as follows: Fluorescence spectroscopy of the RBCs membrane (DPH probe anisotropy). The format is cell-based, human. To be noted: membranes of RBCs, 37 °C. The procedure:
Using the DPH probe, the anisotropy values of cell membranes of RBCs modified with the test compounds were measured. RBCs for this analysis were prepared according to the method described in subsection 2.5.3. Then, the DPH probe was added to RBCs with a haematocrit of 0.2%. The final concentration of the probe in the sample was 1.3 μM. The mixture was incubated protected from light at 37°C for 30 min. Then, the compounds dissolved in ethanol were added. The compounds were tested at 20, 60, and 100 μM concentrations. Samples with compounds and control samples with alcohol of the appropriate concentration were incubated at 37°C for 1 h. Measurements in triplicate were made in quartz cuvettes using a CARY Eclipse fluorimeter (Varian, San Diego, CA, United States) at 37°C. The excitation wavelength for the DPH probe is λexc = 360 nm and the emission wavelength is λem = 426 nm.

The conditions of data set [9]: cited from earlier work.
The test system of data set [10] is human hepatocellular carcinoma HepG2 cells. The arrangement: method as in Yoo et al., 2005; Song et al., 2014, 2020. The note with it: ref Yoo et al., 2005; Song et al., 2014, 2020; cited from earlier work.
Data set [11] concerns human osteosarcoma MG63 cell line. Details: method as in Pandit et al., 2020. The note with it: ref Pandit et al., 2020; cited from earlier work.
Data set [12] is described as follows: Free-radical scavenging assay (DPPH test). The format is biochemical. The note with it: DPPH 190 μM in methanol, 1 h, 25°C, absorbance 517 nm. As to the method:
The antiradical activity of all compounds was tested using the 2,2-diphenyl-1-picrylhydrazyl (DPPH) test according to a previously described method ([Herald et al., 2012]; [Dudek et al., 2022]). One litre of a fresh solution of 190 μM DPPH in pure methanol was prepared in a dark glass bottle. The solution was kept protected from light and used within a week. The tested compounds and ascorbic acid as a positive control were prepared at concentrations in the range of 5–100 μg/mL. Two hundred microlitres of the test compound dilutions was added to each well of a 96-well microtiter plate. Then, […] of a 190 μM solution of DPPH in methanol was added. DPPH was also added to the negative control, in which 200 μL of methanol was added instead of the test compounds. All samples were tested at least in triplicate. The microtiter plates were incubated in the Biosan PST-60 HL thermoshaker at 25°C under shaking at 1,000 rpm for 1 h. […] EC50 values were calculated using Quest Graph™ EC50 Calculator (AAT Bioquest, Inc.).
For orientation: The DPPH test is a chemical assay of radical scavenging.

Setting [13] is: C. albicans 636/20, 595/20, 38 and ATTC90028.

Converted amounts (≈) assume the structure as drawn. Where two headings read alike, the source gives them in different places. A value given as a limit tells only on which side of the number the result lay.

By MIC50 is commonly meant the lowest concentration that inhibits either 50% of growth or 50% of the strains tested, depending on the study. As usually defined, the MIC is the lowest concentration found to suppress growth. Turning to `C/C=C/c1ccc2c(c1)OCO2` [1a, isosafrole], in data set [1], the “Apoptosis in Caco-2 cell line (in words)” value is given as “induced apoptosis”. In addition, the MIC50 in [2] was less than 100 µg/mL. For the same compound, in data set [3], the “Effect on MG63 proliferation / viability (in words)” value was “promoted MGC63 proliferation”. Also, in data set [4], the hemolysis at 1 h, 10 µM worked out at 2.41 ± 0.481%; the hemolysis at 1 h, 20 µM was 1.54 ± 0.202%; the hemolysis at 1 h, 40 µM came out at 2.18 ± 0.153%; the hemolysis at 1 h, 60 µM turned out to be 2.4 ± 0.446%. For the same compound, in data set [4], the hemolysis at 1 h, 80 µM was found to be 2.585 ± 0.014% and the hemolysis at 1 h, 100 µM came out at 2.55 ± 0.007%. In addition, in data set [5], the “Effect on HepG2 proliferation / viability (in words)” value is listed as “more strongly significantly suppressed the viability”. This compound yielded an MIC50 in [6] (595/20, 24 h) of 65 µg/mL (≈ 401 µM). Besides, the MIC in data set [7] is 100 µg/mL (≈ 617 µM). Moreover, the “Fluorescence anisotropy of the DPH probe” value in data set [8] (20 µM) was found to be 0.262 ± 0.016. Further, the “Fluorescence anisotropy of the DPH probe” value in data set [8] (60 µM) is reported as 0.264 ± 0.030. In addition, the “Fluorescence anisotropy of the DPH probe” value in data set [8] (100 µM) is 0.237 ± 0.041.
As for isoeugenol [5a], the “MIC50 (over all tested strains)” value in data set [2] (setting [13]) lay in the range of 52 to 88 µg/mL. Also, the “Effect on MG63 proliferation / viability (in words)” value in data set [3] is on record as “promoted MGC63 proliferation”. Moreover, the MIC in data set [7] was 400 µg/mL. Moreover, the “Fluorescence anisotropy of the DPH probe” value worked out at 0.259 ± 0.009 in data set [8] (20 µM), 0.272 ± 0.085 in data set [8] (60 µM) and 0.256 ± 0.023 in data set [8] (100 µM). Further, the antioxidant activity in data set [9] (ref Siva et al. (2019)) is given as 86%.
For `C/C=C/c1ccc(OC)cc1` [3a, anethole], the MIC50 in data set [2] (setting [13]) fell in the range of 62 to 100 µg/mL (≈ 418 to 675 µM). For the same compound, the “Effect on growth of HepG2 cells (in words)” value in [10] is reported as “inhibited the growth”. Also, the “Proliferation and apoptosis in MG63 cell line (in words)” value in data set [11] is “caused abrogation in proliferation and induces apoptosis”. In addition, in [4], the hemolysis at 1 h, 10 µM was 1.36 ± 0.296%; the hemolysis at 1 h, 20 µM was found to be 1.14 ± 0.159%; the hemolysis at 1 h, 40 µM was 2.23 ± 0.13%; the hemolysis at 1 h, 60 µM was 2.54 ± 0.267%. For the same compound, in data set [4], the hemolysis at 1 h, 80 µM is 2.2 ± 0.108% and the hemolysis at 1 h, 100 µM is 2.5 ± 0.39%. Besides, the MIC50 in data set [6] (C. albicans 595/20, 24 h, 35°C, tested 10–250 μg/mL, read-out: MIC50) is 62 µg/mL (≈ 418 µM). Moreover, in data set [8] (20 µM), the “Fluorescence anisotropy of the DPH probe” value is recorded as 0.263 ± 0.005. Further, the “Fluorescence anisotropy of the DPH probe” value in [8] (60 µM) is on record as 0.261 ± 0.009. For the same compound, in [8] (100 µM), the “Fluorescence anisotropy of the DPH probe” value was determined as 0.259 ± 0.008. In [12], this compound registered an EC50 antiradical activity of 19.13 µg/mL (≈ 129 µM).
Consider `O=C1O[C@H]([C@@H](O)CO)C(O)=C1O` [ascorbic acid, reference compound], for which the EC50 antiradical activity in data set [12] was found to be 15.21 µg/mL (≈ 86.4 µM).
In the case of `C=CCc1ccc2c(c1)OCO2` [safrole], in [10], the “Effect on growth of HepG2 cells (in words)” value was “inhibited the growth”. Also, in data set [9] (ref Eid and Hawash (2021)), the IC50 antioxidant activity was 50.28 µg/mL (≈ 310 µM).
